From paper PMC8596843, “Platinum Cyclooctadiene Complexes with Activity against Gram‐positive Bacteria” (Chemmedchem, 2021)
Marks after values point to notes of the source that are not given here.

What was measured:
[1] = tested on: Staphylococcus aureus VRS 1, VRSA (VanA); assay: Antibacterial MIC assay, Gram-positive panel; type: cell-based; conditions: n=4
Source text: (§1) Bis(dimethyl-η4)-((1Z,1'E,5Z,5'E)-(1,1'-bi(cyclooctadiene))diplatinum(II) (Pt14) Smiles: C1C=CCCC(=CC1)C1=CCCC=CCC1.C[Pt]C.C[Pt]C
(§2) InChIKey: PHIWIZAHOBWKFJ-HPCBIOCFSA-N
(§3) Link to selected data that was repeated to approve the identity of the compounds: https://dx.doi.org/10.14272/PHIWIZAHOBWKFJ-HPCBIOCFSA-N.1
(§4) ATCC strains were sourced from the American Type Culture Collection and NRS strains from NARSA (Network on Antimicrobial Resistance in Staphylococcus aureus) via BEI Resources (www.beiresources.org), with clinical MSSA and MRSA isolates from Prof Graeme Nimmo, Queensland […]
(§5) Health Central Pathology. […]
(§6) Antibacterial minimum inhibitory concentration (MIC) assay
(§7) Compound Assay Plate Preparation: Compounds were dissolved in DMSO at 10mM (CO-ADD screening) or 4 mM (follow up screening) and were plated in a 2-fold dose response from 20 to 0.156 µM or 200 to 0.006 µM respectively, with a maximum of 0.5% or 1% DMSO, final in the assay […]
(§8) plated in a 2-fold dose response from 200 to 0.006 µM, with a maximum of 1 % DMSO, final in the assay concentration. (in-house screening)
(§9) For all the bacterial assays, each strain was cultured in Cation-adjusted Mueller Hinton broth (CAMHB; Bacto Laboratories 212322) at 37 °C overnight. A sample of each culture was then diluted 40-fold in fresh CAMHB and incubated at 37 °C for 1.5–3 h. The resultant mid-log phase cultures were diluted with CAMHB (CFU mL−1 measured by OD600), then added to each well of the compound-containing plates (384-well non-binding surface (NBS) plates; Corning CLS3640), giving a cell density of 5 × 10^5 CFU mL−1 and a total volume of 50 μL. Plates were covered and incubated at 37 °C for 18 h without shaking. Inhibition of bacterial growth was determined measuring absorbance at 600 nm (OD600), using media only as negative control and bacteria without inhibitors as positive control. MIC values were determined as the lowest concentration at which the growth was inhibited at ≥80%. Colistin sulfate (Sigma C4461) and vancomycin HCl (Sigma 861987) were used as internal controls on each plate for Gram-negative and Gram-positive bacteria, respectively. […]

[2] = tested on: Staphylococcus aureus ATCC 25923, MSSA; assay: Antibacterial MIC assay, Gram-positive panel; type: cell-based; conditions: n=4
Source text: as §1, §2, §3, §4, §5, §6, §7, §8, §9

S. aureus NRS 17 GISA = assay: MIC in the presence of human serum (serum reversal); type: cell-based, Staphylococcus aureus; conditions: 50% serum
Source text: (§10) To obtain some initial insight into the apparent disparity between in vitro and in vivo results, we repeated the MIC experiments against four selected Gram‐positive strains in the presence of 10 % or 50 % human serum (Table S3). Pt1 and Pt2 maintained some antibacterial activity against B. subtilis in the presence of 10 % serum, but a complete loss of activity was observed against MRSA and GISA (50 % serum), and VRE (10 % serum). […] Systemic administration is therefore unlikely to be a suitable administration route for this class of compounds unless an alternative formulation that can prevent serum binding (e. g. by lipid or nanoparticle encapsulation) can be found. […] Further in vivo studies should therefore focus on more suitable disease models. […]
as §6
(§11) concentration. (in-house screening)
(§12) Bacto Laboratories 212322) at 37 °C overnight.
(§13) The resultant mid-log phase cultures were diluted
(§14) Gram-negative and Gram-positive bacteria, respectively.
(§15) final concentration range of 0.8 – 100 µM.
(§16) inhibitors as positive control. […]

[3] = tested on: S. aureus ATCC 43300 MRSA; assay: as above; type: cell-based, Staphylococcus aureus; conditions: 50% serum
Source text: as §10, §6, §11, §12, §13, §14, §15, §16

[4] = tested on: Staphylococcus aureus NRS 17, GISA; assay: Antibacterial MIC assay, Gram-positive panel; type: cell-based; conditions: n=2
Procedure, shortened: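 MIC is defined here as the lowest concentration inhibiting growth by ≥80% relative to untreated bacteria. The assay used OD600 in CAMHB after an 18 h, 37 °C incubation at 5 × 10^5 CFU/mL. Compound was dosed in 2-fold steps with DMSO capped at 0.5–1% final.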

[5] = tested on: E. coli lpxC (non‐efficient lipid A production mutant); assay: MIC against E. coli membrane mutants; type: cell-based, Escherichia coli; conditions: Table S2
Protocol: as §6, §11, §12, §13, §14, §15, §16

[6] = tested on: E. coli tolC (efflux pump deficient); assay: MIC against E. coli membrane mutants; type: cell-based, Escherichia coli; conditions: Table S2
Protocol: as §6, §11, §12, §13, §14, §15, §16

[7] = tested on: E. faecium ATCC 51559 MDR, VRE; assay: MIC in the presence of human serum (serum reversal); type: cell-based, Enterococcus faecium; conditions: 10% serum
Source text: as §10, §6, §11, §12, §13, §14, §15, §16

[8] = tested on: B. subtilis ATCC 6051 type strain; assay: as above; type: cell-based, Bacillus subtilis; conditions: 10% serum
Source text: as §10, §6, §11, §12, §13, §14, §15, §16

[9] = tested on: Galleria mellonella larvae; assay: In vivo toxicity in moth larvae; conditions: for concentration without any toxicity in G. mellonella: 10 μL injected, five larvae per concentration, survival and health index over 96 hours, highest tested; for dosage without any toxicity in G. mellonella: equates to 0.4 mM, 10 μL injection
Protocol: Following a protocol previously reported by us we used larvae of the greater wax moth Galleria mellonella as a model organism for in vivo toxicity and efficacy.[20] […] Briefly, stock solutions of Pt1 and Pt2 were prepared in DMSO and diluted to final concentrations of 0.4 mM, 100 μM, 10 μM and 1 μM. […] For each concentration five larvae were injected with 10 μL and monitored for 96 hours for survival and health using the G. mellonella Health Index Scoring System.[22] […]
G. mellonella larvae were reared in controlled environmental room at Macquarie University, Sydney, Australia at 26 °C and 65% humidity with a 12-hours light/dark cycle. Larvae (~200 mg) were individually injected with 10 µL of chemical into the last right proleg using a 100 μL syringe (Hamilton Ltd). The […]
Each compound was dissolved in DMSO and diluted to final concentrations of 1 µM, 100 µM and 10 mM. We injected 5 larvae for each dilution of each compound.
Larvae injected with different dilutions of DMSO (10-1, 10-3 and 10-5) were included as negative controls.
Following injection, the larvae were incubated at 26 °C and monitored every 24 h for 4 days. Larval performance was assessed according to the G. mellonella Health Index Scoring System.[1] The experiments were repeated three separate times. […]

SMILES	MIC ([1]; Table S1 panel)	MIC ([2]; Table S1 panel)	MIC in the presence of human serum (S. aureus NRS 17 GISA)	MIC in the presence of human serum [3]	MIC ([4]; Table S1 panel)	MIC E. coli lpxC [5]	MIC E. coli TolC [6]	MIC in the presence of human serum [7]	MIC in the presence of human serum [8]	MIC ([1]; Table 2 panel)	MIC ([2]; Table 2 panel)	MIC ([4]; Table 2 panel)	concentration without any toxicity in G. mellonella [9]	dosage without any toxicity in G. mellonella [9]
CCC1=CCCC=CCC1.[CH3][Pt][Cl] [Pt7]	> 200 µM	> 200 µM	> 200 µM	> 200 µM	200 µM	> 200 µM	> 200 µM	> 200 µM	> 200 µM	–	–	–	–	–
C1=CCC/C=C\CC1.[I][Pt][I] [Pt2, Pt(COD)I2]	–	–	> 200 µM	–	–	100 µM	–	–	–	6.25^[a] μg/mL	1.56–3.125^[a] μg/mL	0.78–1.56^[b] μg/mL	≥ 0.4 mM	9 to 11 mg/kg
C1=C\CC/C=C\CC/1.[Cl-].[Cl-].[Pt+2] [Pt1, Pt(COD)Cl2]	–	–	> 200 µM	–	–	–	–	–	–	12.5^[a] μg/mL	3.125^[a] μg/mL	–	≥ 0.4 mM	6 to 7.5 mg/kg
